Read-outs that look alike come from different tables or passages of the source.

The assay addresses T1, NSD2 (Homo sapiens, UniProt O96028).
T1 sequence (O96028 1-1365): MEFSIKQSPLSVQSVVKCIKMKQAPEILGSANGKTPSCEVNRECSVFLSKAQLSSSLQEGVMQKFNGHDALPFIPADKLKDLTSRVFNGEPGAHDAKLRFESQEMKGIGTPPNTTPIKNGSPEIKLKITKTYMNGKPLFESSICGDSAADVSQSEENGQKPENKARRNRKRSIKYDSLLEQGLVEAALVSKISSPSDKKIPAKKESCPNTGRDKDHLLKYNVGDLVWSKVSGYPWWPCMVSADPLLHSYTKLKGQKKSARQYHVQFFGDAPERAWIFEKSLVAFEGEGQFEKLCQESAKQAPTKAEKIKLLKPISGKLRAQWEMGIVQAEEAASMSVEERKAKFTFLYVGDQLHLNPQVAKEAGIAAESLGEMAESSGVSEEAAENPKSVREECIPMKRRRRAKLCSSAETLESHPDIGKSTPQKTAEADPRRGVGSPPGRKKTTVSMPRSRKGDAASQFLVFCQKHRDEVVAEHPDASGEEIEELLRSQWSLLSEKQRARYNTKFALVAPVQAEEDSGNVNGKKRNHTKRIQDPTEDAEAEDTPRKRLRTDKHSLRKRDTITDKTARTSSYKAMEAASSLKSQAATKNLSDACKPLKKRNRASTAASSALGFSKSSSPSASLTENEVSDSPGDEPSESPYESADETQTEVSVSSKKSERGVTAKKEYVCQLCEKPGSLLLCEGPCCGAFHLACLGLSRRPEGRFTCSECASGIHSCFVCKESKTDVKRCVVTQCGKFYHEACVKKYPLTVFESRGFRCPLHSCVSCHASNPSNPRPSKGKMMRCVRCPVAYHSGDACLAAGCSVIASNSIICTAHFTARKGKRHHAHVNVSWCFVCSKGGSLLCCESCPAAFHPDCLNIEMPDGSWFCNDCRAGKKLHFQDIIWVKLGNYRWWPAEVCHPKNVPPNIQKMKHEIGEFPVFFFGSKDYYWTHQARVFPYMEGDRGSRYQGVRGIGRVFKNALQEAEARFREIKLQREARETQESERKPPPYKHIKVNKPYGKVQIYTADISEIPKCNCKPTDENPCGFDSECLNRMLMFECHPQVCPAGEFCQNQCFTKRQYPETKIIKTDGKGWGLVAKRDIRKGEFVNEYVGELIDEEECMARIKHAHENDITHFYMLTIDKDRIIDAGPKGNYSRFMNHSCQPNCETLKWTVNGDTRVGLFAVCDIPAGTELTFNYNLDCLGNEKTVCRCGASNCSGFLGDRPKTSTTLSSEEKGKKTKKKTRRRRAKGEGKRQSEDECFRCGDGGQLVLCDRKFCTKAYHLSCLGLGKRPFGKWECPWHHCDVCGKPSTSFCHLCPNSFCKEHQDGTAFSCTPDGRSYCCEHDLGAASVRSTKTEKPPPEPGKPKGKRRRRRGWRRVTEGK
Put plainly: Compound screening: NSD2 degradation by immunoblotting in VCaP cells. The following applies: VCaP, 24 h.

The mark [1] stands for this setting: read-out: 2.0 μM Degradation % (VCaP).

Protocol: After treatment, the cultured cells were collected and rinsed with phosphate-buffered saline (PBS) in room temperature. The cells were treated with RIPA buffers (ThermoFisher Scientific) supplemented with Halt Protease and Phosphatase Inhibitor Cocktail (ThermoFisher Scientific). After sonication and centrifugation, the total amount of protein in the cell lysates was measured by Pierce Bovine Serum Albumin Standard Pre-Diluted Set (ThermoFisher Scientific). […] After incubated with HRP-conjugated secondary antibodies, the membranes were developed with ECL Prime Western Blotting Detection Reagent (cytiva) and imaged on Odyssey Fc Imager (LiCOR Biosciences).
Western blot was then performed as previously described to detect NSD2 degradation.

Take `O=C1CCC(N2C(=O)c3ccc(N4CCC(CNC(=O)c5ccc(NC(=O)c6ccc(CN(C(=O)c7ccc8c(c7)OCC(=O)N8)C7CC7)cc6)cc5)CC4)cc3C2=O)C(=O)N1` (centres unmarked) [10n, N-Cyclopropyl-N-(4-((4-(((1-(2-(2,6-dioxopiperidin-3-yl)-1,3-dioxoisoindolin-5-yl)piperidin-4-yl)methyl)carbamoyl)phenyl)carbamoyl)benzyl)-3-oxo-3,4-dihydro-2H-benzo[b][1,4]oxazine-7-carboxamide]: the Dmax at 2 µM runs as follows: under setting [1], 74%; (read-out: % Degradation) 74%.
In the case of `O=C1CCC(N2C(=O)c3ccc(NCCCCCNC(=O)c4ccc(NC(=O)c5ccc(CN(C(=O)c6ccc7c(c6)OCC(=O)N7)C6CC6)cc5)cc4)cc3C2=O)C(=O)N1` (centres unmarked) [10h, N-Cyclopropyl-N-(4-((4-((5-((2-(2,6-dioxopiperidin-3-yl)-1,3-dioxoisoindolin-5-yl)amino)pentyl)carbamoyl)phenyl)carbamoyl)benzyl)-3-oxo-3,4-dihydro-2H-benzo[b][1,4]oxazine-7-carboxamide], the Dmax at 2 µM is, setting by setting: under setting [1], 80%; (read-out: % Degradation) 80%.
With `O=C1CCC(N2C(=O)c3ccc(NCCCNC(=O)c4ccc(NC(=O)c5ccc(CN(C(=O)c6ccc7c(c6)OCC(=O)N7)C6CC6)cc5)cc4)cc3C2=O)C(=O)N1` (centres unmarked) [compound 10f, N-Cyclopropyl-N-(4-((4-((3-((2-(2,6-dioxopiperidin-3-yl)-1,3-dioxoisoindolin-5-yl)amino)propyl)carbamoyl)phenyl)carbamoyl)benzyl)-3-oxo-3,4-dihydro-2H-benzo[b][1,4]oxazine-7-carboxamide], the Dmax at 2 µM by setting is: under setting [1], 94%; (read-out: % Degradation) 94%.
As for `O=C1CCC(N2C(=O)c3ccc(NCCNC(=O)c4ccc(NC(=O)c5ccc(CN(C(=O)c6ccc7c(c6)OCC(=O)N7)C6CC6)cc5)cc4)cc3C2=O)C(=O)N1` (centres unmarked) [10e, N-cyclopropyl-N-(4-((4-((2-((2-(2,6-dioxopiperidin-3-yl)-1,3-dioxoisoindolin-5-yl)amino)ethyl)carbamoyl)phenyl)carbamoyl)benzyl)-3-oxo-3,4-dihydro-2H-benzo[b][1,4]oxazine-7-carboxamide], the Dmax at 2 µM is, setting by setting: under setting [1], 70%; (read-out: % Degradation) 70%.
In the case of `O=C1CCC(N2C(=O)c3cccc(NCCCCCCCCNC(=O)c4ccc(NC(=O)c5ccc(CN(C(=O)c6ccc7c(c6)OCC(=O)N7)C6CC6)cc5)cc4)c3C2=O)C(=O)N1` (centres unmarked) [10d, N-Cyclopropyl-N-(4-((4-((8-((2-(2,6-dioxopiperidin-3-yl)-1,3-dioxoisoindolin-4-yl)amino)octyl)carbamoyl)phenyl)carbamoyl)benzyl)-3-oxo-3,4-dihydro-2H-benzo[b][1,4]oxazine-7-carboxamide], the Dmax at 2 µM runs as follows: under setting [1], 13%; (read-out: % Degradation) 13%.
For `O=C1CCC(N2C(=O)c3cccc(NCCNC(=O)c4ccc(NC(=O)c5ccc(CN(C(=O)c6ccc7c(c6)OCC(=O)N7)C6CC6)cc5)cc4)c3C2=O)C(=O)N1` (centres unmarked) [compound 10a, N-Cyclopropyl-N-(4-((4-((2-((2-(2,6-dioxopiperidin-3-yl)-1,3-dioxoisoindolin-4-yl)amino)ethyl)carbamoyl)phenyl)carbamoyl)benzyl)-3-oxo-3,4-dihydro-2H-benzo[b][1,4]oxazine-7-carboxamide], the Dmax at 2 µM is, setting by setting: under setting [1], 17%; (read-out: % Degradation) 17%.
Turning to `O=C1CCC(N2C(=O)c3ccc(NCCCCNC(=O)c4ccc(NC(=O)c5ccc(CN(C(=O)c6ccc7c(c6)OCC(=O)N7)C6CC6)cc5)cc4)cc3C2=O)C(=O)N1` (centres unmarked) [10g, N-Cyclopropyl-N-(4-((4-((4-((2-(2,6-dioxopiperidin-3-yl)-1,3-dioxoisoindolin-5-yl)amino)butyl)carbamoyl)phenyl)carbamoyl)benzyl)-3-oxo-3,4-dihydro-2H-benzo[b][1,4]oxazine-7-carboxamide], the Dmax at 2 µM was 92% under setting [1] and 92% (read-out: % Degradation).

The values are drawn from paper PMC11094793, “Discovery of LLC0424 as a Potent and Selective in Vivo NSD2 PROTAC Degrader” (Journal of Medicinal Chemistry, 2024).
